In patent US4327222A, “3,4-Diarylisoxazol-5-acetic acids and process for making same” (priority 1979, dated 1982):
“Also recorded” adds a separate entry of the source. Like-named read-outs stand apart in the source and are kept apart here.

Columns and labels:
cotton pellet granuloma = test: Antigranuloma: cotton pellet granuloma test in the rat; assay type: in vivo
Method: (§1) 138, 405 (1962), both in the rat. […] Acute toxicities are determined in rats and in mice and the LD50 's are calculated according to the method of Litchfield and Wilcoxon, J.Pharmacol.Exp. Therap. 96, 99 (1949).

[1] = tested on: phenylquinone-induced muscular writhing; test: Analgesic: phenylquinone-induced muscular writhing test in mice (modified Siegmund et al.); assay type: in vivo; conditions: for ED50: Mus musculus, po, read-out: ED50 p.o. Analgesic (Phenylquinone)
[2] = tested on: carrageenin-induced paw edema; test: Anti-inflammatory: carrageenin-induced paw edema test in the rat (modified Winter et al.); assay type: in vivo; conditions: for ED50: po, read-out: ED50 p.o. Anti-inflammatory (Carrageenin)
in vivo [3] = conditions: mouse, po, mice, read-out: Acute Toxicity (LD50) p.o.
Method: as §1

rats = test: in vivo; assay type: in vivo
Method: (§2) Acute toxicities are determined in rats and in mice and the LD50 's are calculated according to the method of Litchfield and Wilcoxon, J.Pharmacol.Exp. Therap.

yeast-induced fever = test: Anti-pyretic: yeast-induced fever test in rats; assay type: in vivo; conditions: Rattus norvegicus, po, read-out: ED50 p.o. Anti-Pyretic (Yeast)
in vivo [4] = assay type: in vivo; conditions: rat, in vivo, po; rats; read-out: Acute Toxicity (LD50) p.o.
Method: as §2

SMILES | ED50 ([2]; rat, carrageenin paw edema) [mg/kg] | ED50 (yeast-induced fever; rats, yeast-induced fever) [mg/kg] | ED50 ([1]; mice, phenylquinone writhing) [mg/kg] | also measured
COc1ccc(-c2noc(CC(=O)O)c2-c2ccc(OC)cc2)cc1 [3,4,-Di(p-methoxyphenyl)isoxazol-5-acetic Acid] | – | – | – | activity in antigranuloma test (in words) (cotton pellet granuloma): active in antigranuloma test; ED50 [1]: 1.8 mg/kg; analgesic activity (in words) ([1]; mice, listed as Example 4): remarkable anti-inflammatory and analgesic activities; also recorded: well within the range of the same activities shown for a number of established anti-inflammatory drugs and are markedly superior to the activities of known 3-arylisoxazol-5-acetic acids; ED50 ([2]; Rattus norvegicus): 25 to 40 mg/kg; anti-inflammatory activity (in words) ([2]; rat, listed as Example 4): remarkable anti-inflammatory and analgesic activities; also recorded: well within the range of the same activities shown for a number of established anti-inflammatory drugs and are markedly superior to the activities of known 3-arylisoxazol-5-acetic acids; LD50 (in vivo [3]): 1000 mg/kg; therapeutic index LD50/anti-inflammatory ED50 (in words) (rats; LD50 / anti-inflammatory ED50): favourable therapeutic index; order of toxicity (in words) (rats; rats and mice): low order of toxicity; ED50 (yeast-induced fever): > 120 mg/kg
O=C(O)Cc1onc(-c2ccccc2)c1-c1ccccc1 [3,4-Diphenylisoxazol-5-acetic Acid] | 120 | 120 | – | LD50 (in vivo [3]): 670 mg/kg
COc1ccc(-c2cc(CC(=O)O)on2)cc1 [3-(p-methoxyphenyl)isoxazol-5-acetic acid] | > 135 | > 120 | 60 | –
O=C(O)Cc1cc(-c2ccccc2)no1 [3-Phenylisoxazol-5-acetic Acid, 3-phenylisoxazol-5-acetic acid] | 70 to 80 | > 135 | 60 to 90 | Acute Toxicity p.o. (dose with 100% mortality) (rats; p.o., rats, 100% mortality): 1500 mg/kg
CC(=O)Oc1ccccc1C(=O)O [Aspirin] | 60 to 90 | – | 70 to 100 | LD50 (in vivo [4]): 1740 mg/kg
CC(C)Cc1ccc(C(C)C(=O)O)cc1 (centres unmarked) [Ibuprofen] | 15 to 30 | 15 | 15 to 25 | –
COc1ccc2c(c1)c(CC(=O)O)c(C)n2C(=O)c1ccc(Cl)cc1 [Indomethacin] | – | – | – | ED50 [1]: < 1 mg/kg; ED50 ([2]; Rattus norvegicus): 7 to 9 mg/kg; LD50 (in vivo [4]): 27 mg/kg; ED50 (yeast-induced fever): 3 to 5 mg/kg
Cc1cccc(Nc2ccccc2C(=O)O)c1C [Mefenamic Acid] | 45 to 55 | 7.5 to 10 | 7.5 to 10 | –
COc1ccc2cc([C@H](C)C(=O)O)ccc2c1 [Naproxen] | 10 to 12 | 15 to 20 | 7.5 to 10 | –
COc1ccc(-c2noc(C(OC)C(=O)O)c2-c2ccc(OC)cc2)cc1 (stereo not drawn) [Sodium 3,4-Di(p-methoxyphenyl)isoxazol-5α-methoxyacetate] | 120 | > 120 | 60 | –
CC1=C(CC(=O)O)c2cc(F)ccc2/C1=C\c1ccc([S+](C)[O-])cc1 (centres unmarked) [Sulindac] | 20 to 30 | 7.5 to 10 | 7.5 to 10 | –
